Assay: Fluorescence response to Dalteparin sodium in buffer, serum and plasma
Assay type: binding
Conditions: fluorescence of perylene diimide derivative/LMWH mixture
Experimental: The response of the perylene diimide derivative to heparin was additionally studied using Dalteparin sodium (0.4-0.8 IU/mL), a clinically important LMWH preparation with a mean molecular weight of 5000 g/mol. Fluorescence was recorded with a portable fluorometer, equipped with a 485 nm excitation filter and a 665 nm cutoff emission filter. The latter filter offered good signal-to-background ratio since serum/plasma autofluorescence is very low above 665 nm. The fluorescence of the perylene diimide derivative decreased approximately linearly (FIG. 4c) with increasing LMWH concentration, in buffered solution. The binding ration was calculated to be one perylene diimide derivative/2 disaccharides of heparin. Solutions containing 20 vol % serum or plasma required an only slightly larger (about 1.1-fold) LMWH concentration to trigger the same relative fluorescence decrease as observed in buffered solution.

- reversibility of LMWH binding on addition of protamine: fluorescence was restored
Substance: protamine

From patent US9006261B2, “Fluorescent perylene derivatives for direct detection of heparin” (priority 2009, dated 2015)
